Reference: ChEMBL document CHEMBL5150014, “Discovery and Development of Dolastatin 10-Derived Antibody Drug Conjugate Anticancer Drugs” (J Nat Prod, 2022)
Starred links: 1 amine or outer side, 2 acyl side, 3 side chain; linkers in the order of their positions; H or OH if unused. Non-standard residues stand in square brackets, D forms with d. Residues, ends and D or L forms follow the SMILES beside them. *: point of attachment. X2 = CO[C@H]([C@@H](C)C(=O)[*:2])[C@@H]1C[C@@H]2C[C@@H]2N1[*:1]; Dolaproine = CO[C@@H]([C@@H]1CCCN1)[C@@H](C)C(=O)O; Abu(3S-N3) = C[C@H](N=[N+]=[N-])[C@H](N)C(=O)O; Dil = CC[C@H](C)[C@H](NC)[C@@H](CC(=O)O)OC; X5 = CCCCCCCCCCN(C)[C@H](C(=O)*)C(C)C; Phe(2-F) = N[C@@H](Cc1ccccc1F)C(=O)O; NMeV = CN[C@H](C(=O)O)C(C)C

Legend:
[1] = system: ASPC1; experiment: Cytotoxicity against human ASPC1 cells assessed as cell growth inhibition incubated for 72 hrs by CellTiter-Glo assay; type: functional
[2] = system: SK-BR-3; experiment: Cytotoxicity against human SK-BR-3 cells assessed as cell growth inhibition incubated for 72 hrs by CellTiter-Glo assay; type: functional
[3] = system: HeLa S3; experiment: Cytotoxicity against human HeLa S3 cells assessed as reduction in cell viability incubated for 4 days by propidium iodide staining based fluorescence analysis; type: functional; conditions: HeLa S3, 96 h
[4] = system: SK-OV-3; experiment: Cytotoxicity against human SK-OV-3 cells assessed as reduction in cell viability incubated for 96 hrs by PrestoBlue cell viability assay; type: functional, cell-based; conditions: SK-OV-3, 96 h
[5] = system: HeLa; experiment: Cytotoxicity against human HeLa cells assessed as cell growth inhibition; type: functional
[6] = system: Panel NCI-60 (60 carcinoma cell lines); experiment: Cytotoxicity against human Panel NCI-60 (60 carcinoma cell lines) assessed as cell growth inhibition; type: functional, cell-based
[7] = target: Tubulin; experiment: Binding affinity to tubulin (unknown origin); type: protein-complex assay, Homo sapiens
[8] = system: HT-29; experiment: Anticancer activity against human HT-29 assessed as reduction in cell viability incubated for 96 hrs by microculture tetrazolium assay; type: functional, cell-based; conditions: HT-29, 96 h
[9] = system: SF-295; experiment: Anticancer activity against human SF-295 cells assessed as growth inhibition; type: functional
[10] = system: NCI-H82; experiment: Anticancer activity against human NCI-H82 cells assessed as cell growth inhibition; type: functional, cell-based
[11] = target: Tubulin; experiment: Inhibition of tubulin (unknown origin) polymerization assessed as reduction in microtubule formation preincubated for 15 mins followed by GTP addition and measured for 20 mins by spectrophotometric analysis; type: protein-complex assay, Homo sapiens
[12] = target: Tubulin; experiment: Inhibition of tubulin (unknown origin) polymerization assessed as reduction in microtubule formation measured for 20 mins by spectrophotometric analysis; type: protein-complex assay, Homo sapiens
[13] = system: A498; experiment: Anticancer activity against human A498 cells assessed as growth inhibition; type: functional
[14] = Toxicity in mouse assessed as maximum tolerated dose; conditions: in vivo
[15] = system: NCI-H446; experiment: Anti-tumor activity against human NCI-H446 cells xenografted in SCID mouse assessed as log increase in apoptosis at 450 microg/kg, iv measured after 96 hrs; type: functional; conditions: dose 450 µg/kg
[16] = Toxicity in dog assessed as maximum tolerated dose; parameters: species or system Canis lupus familiaris; conditions: in vivo
[17] = system: KM-20L2; experiment: Anticancer activity against human KM-20L2 cells assessed as growth inhibition; type: functional
[18] = system: NCI-H69; experiment: Anticancer activity against human NCI-H69 cells assessed as cell growth inhibition; type: functional, cell-based
[19] = system: NCI-H446; experiment: Anticancer activity against human NCI-H446 cells assessed as cell growth inhibition; type: functional, cell-based
[20] = system: NCI-H510A; experiment: Anticancer activity against human NCI-H510A cells assessed as cell growth inhibition; type: functional, cell-based
[21] = system: NCI-H446; experiment: Anti-tumor activity against human NCI-H446 cells xenografted in SCID mouse assessed as increase in median survival time at 450 microg/kg, iv (Rvb= 42 day); type: functional; conditions: dose 450 µg/kg
[22] = system: SK-MEL-5; experiment: Anticancer activity against human SK-MEL-5 cells assessed as growth inhibition; type: functional
[23] = system: L1210; experiment: Cytotoxicity against mouse L1210 cells assessed as cell growth inhibition measured after 24 hrs; type: functional, cell-based; conditions: L1210, 24 h
[24] = system: leukaemia cell line; experiment: Cytotoxicity against human leukaemia cell line assessed as cell growth inhibition; type: functional
[25] = system: OVCAR-3; experiment: Anticancer activity against human OVCAR-3 cells assessed as growth inhibition; type: functional
[26] = system: NCI-H460; experiment: Anticancer activity against human NCI-H460 cells assessed as growth inhibition; type: functional
[27] = system: HL-60; experiment: Cytotoxicity against P-gp negative human HL-60 cells assessed as reduction inc cell viability; type: functional, cell-based
[28] = system: HT-29; experiment: Cytotoxicity against human HT-29 cells assessed as cell growth inhibition; type: functional, cell-based
[29] = system: HCT-116; experiment: Cytotoxicity against human HCT-116 cells assessed as reduction inc cell viability; type: functional, cell-based
[30] = system: H3396; experiment: Cytotoxicity against human H3396 cells assessed as cell growth inhibition; type: functional, cell-based
[31] = system: KARPAS-299; experiment: Cytotoxicity against human KARPAS-299 cells assessed as reduction in cell viability incubated for 5 days by Presto blue dye based assay; type: functional; conditions: KARPAS-299, 120 h

Question: What does the source list for `CC[C@H](C)[C@@H]([C@@H](CC(=O)N1[C@H]2C[C@H]2C[C@H]1[C@H](OC)[C@@H](C)C(=O)N[C@@H](Cc1ccccc1F)C(=O)O)OC)N(C)C(=O)[C@@H](NC(=O)[C@@H](NC)C(C)C)C(C)C` (H-[NMeV]V[Dil][X2][Phe(2-F)]-OH)?
Answer: GI50 [1]: 1750 nM; GI50 [2]: 47.7 nM

Question: With `CC[C@H](C)[C@@H]([C@@H](CC(=O)N1CCC[C@H]1[C@H](OC)[C@@H](C)C(=O)OC[C@@H](O)Cc1ccccc1)OC)N(C)C(=O)[C@@H](NC(=O)[C@H](C(C)C)N(C)C)[C@@H](C)CC` as the compound, how does the IC50 [3] read?
Answer: 2.9 nM

Question: Which IC50 [3] does the source give for `CC[C@H](C)[C@@H]([C@@H](CC(=O)N1CCC[C@H]1[C@H](OC)[C@@H](C)C(=O)O[C@H](CO)Cc1ccccc1)OC)N(C)C(=O)[C@@H](NC(=O)[C@H](C(C)C)N(C)C)[C@@H](C)CC` here?
Answer: 2.1 nM

Question: For `C#COCC(O)C(O)C(O)C(O)CN(C)[C@H](C(=O)N[C@H](C(=O)N(C)[C@@H]([C@@H](C)CC)[C@@H](CC(=O)N1CCC[C@H]1[C@H](OC)[C@@H](C)C(=O)N[C@@H](Cc1ccccc1)c1nccs1)OC)C(C)C)C(C)C` (stereo partly specified), which IC50 [4] is on record?
Answer: 1 nM

Question: With `CC[C@H](C)[C@@H]([C@@H](CC(=O)NC[C@H]1O[C@H](C(=O)N[C@@H](Cc2ccccc2)c2nccs2)[C@@H](OC)[C@@H]1OC)OC)N(C)C(=O)[C@@H](NC(=O)[C@H](C(C)C)N(C)C)C(C)C` as the compound, how does the GI50 [5] read?
Answer: 0.01 nM

Question: With `CC[C@H](C)[C@@H]([C@@H](CC(=O)N1CCC[C@H]1[C@H](OC)[C@@H](C)C(=O)NCCc1ccccn1)OC)N(C)C(=O)[C@@H](NC(=O)[C@H](C(C)C)N(C)C)C(C)C` as the compound, how does the GI50 [6] read?
Answer: 0.85 nM

Question: What about the IC50 [7] of the same compound?
Answer: 1.2 nM

Question: For `CC[C@H](C)[C@@H]([C@@H](CC(=O)N1CCC[C@H]1[C@H](OC)[C@@H](C)C(=O)N[C@@H](Cc1ccccc1)c1nccs1)OC)N(C)C(=O)[C@@H](NC(=O)[C@H](C(C)C)N(C)CC(O)C(O)C(O)C(O)CN=[N+]=[N-])C(C)C` (stereo partly specified), which IC50 [4] is on record?
Answer: < 1 nM

Question: For `CC[C@H](C)[C@H]1[C@H](OC)CC(=O)N2CCC[C@H]2[C@H](OC)[C@@H](C)C(=O)N[C@@H](Cc2ccccc2)c2nc(cs2)C(=O)O[C@H](C)[C@H](N(C)C)C(=O)N[C@@H](C(C)C)C(=O)N1C`, which IC50 [8] is on record?
Answer: 58.5 nM

Question: Which results are given for `CC[C@H](C)[C@@H]([C@@H](CC(=O)N1CCC[C@H]1[C@H](OC)[C@@H](C)C(=O)N[C@@H](Cc1ccccc1)c1nccs1)OC)N(C)C(=O)[C@@H](NC(=O)[C@H](C(C)C)N(C)C)C(C)C` [DOLASTATIN-10]?
Answer: GI50 [9]: 0.01 nM; IC50 [10]: 0.032 nM; GI50 [6]: 0.01 nM; IC50 [11]: 3 nM; IC50 [12]: 1200 nM; GI50 [13]: 0.033 nM; MTD [14]: 0.036 mg/kg; Activity [15]: 5.2; MTD [16]: 0.02 mg/kg; GI50 [17]: 0.006 nM; IC50 [18]: 0.032 nM; IC50 [19]: 0.032 nM; IC50 [20]: 0.032 nM; MST [21]: 91 days; GI50 [22]: 0.009 nM; IC50 [23]: 0.9 nM; ED50 [24]: 4.6 10^-5 ug/ml; GI50 [25]: 0.001 nM; GI50 [26]: 0.004 nM

Question: For `CCCCCCCCCCN(C)[C@H](C(=O)N[C@H](C(=O)N(C)[C@@H]([C@@H](C)CC)[C@@H](CC(=O)N1CCC[C@H]1[C@H](OC)[C@@H](C)C(=O)N[C@@H](Cc1ccccc1)C(=O)O)OC)C(C)C)C(C)C` (X5-V[Dil][Dolaproine]F-OH), which IC50 [27] is on record?
Answer: 1.8 nM

Question: For `CC[C@H](C)[C@@H]([C@@H](CC(=O)N1CCC[C@H]1[C@H](OC)[C@@H](C)C(=O)N[C@@H](Cc1ccccc1)C(=O)O)OC)N(C)C(=O)[C@@H](NC(=O)[C@@H](NC)C(C)C)C(C)C` (HELM PEPTIDE1{[meV].V.[CC[C@H](C)[C@@H]([C@@H](CC(=O)[*:2])OC)N(C)[*:1]].[CO[C@H]([C@@H](C)C(=O)[*:2])[C@@H]1CCCN1[*:1]].F}$$$$V2.0), which IC50 [28] is on record?
Answer: 10 nM

Question: And the IC50 [29]?
Answer: 2880 nM

Question: What about the MTD [14] of the same compound?
Answer: 1 mg/kg

Question: What about the IC50 [30] of the same compound?
Answer: 105 nM

Question: And the IC50 [27]?
Answer: 137 nM

Question: Which IC50 [31] does the source give for `CC[C@H](C)[C@@H]([C@@H](CC(=O)N1CCC[C@H]1[C@H](OC)[C@@H](C)C(=O)N[C@@H](Cc1ccccc1)C(N)=O)OC)N(C)C(=O)[C@@H](NC(=O)[C@@H](NC)C(C)C)[C@H](C)N=[N+]=[N-]` (H-[NMeV][Abu(3S-N3)][Dil][Dolaproine]F-NH2) here?
Answer: 0.6 nM
